Patent US10179914B2, “CDC25A inhibitor for the treatment of drug resistant cancer or for the prevention of tumor relapse” (INSERM (INSTITUT NATIONAL DE LA SANTÉ ET DE LA RECHERCHE …, priority 2014, dated 2019)

What was measured:
[1] = system: primary AML cells expressing wild-type FLT3; assay: Clonogenic assay, FLT3 wild-type primary AML cells; type: cell-based, human; conditions: 100 and 200 nM, day 7
Procedure: (c) Primary cells from patients were cultured in semi-solid medium to estimate their clonogenic potential as described in the Methods section, in the presence or the absence of IRC-083864 (100 and 200 nM). 6 FLT3-ITD positive (upper panel) and 4 FLT3-wild type (lower panel) AML primary samples were used for these experiments. Leukemic colonies were scored under an inverted microscope at day 7.
(§1) Patient samples. Patient AML samples were obtained after informed consent in accordance with the Declaration of Helsinki and stored at the HIMIP collection. According to the French law, HIMIP collection has been declared to the Ministry of Higher Education and Research (DC 2008-307 collection 1) and obtained a transfer agreement (AC 2008-129) after approbation by ethical committees (Comité de Protection des Personnes Sud-Ouest et Outremer II and APHP ethical committee). Clinical and biological annotations of the samples have been declared to the CNIL (Comité National Informatique et Libertés i.e. Data processing and Liberties National Committee). Frozen cells were thawed in IMDM medium with 20% FBS and immediately processed for treatment. All patients were diagnosed at the Department of Hematology of Toulouse University Hospital.
Clonogenic assay. […] Leukemic colonies were then scored under an inverted microscope.

[2] = system: K562 cells (FLT3 negative); assay: Cell proliferation, trypan blue counting, K562; type: cell-based, human; conditions: 200 nM
Procedure: (a) MV4-11 and MOLM-14 FLT3-ITD positive cells, KG1, HL-60 and TF-1 FLT3 wild type cells, and K562 FLT3 negative cells were cultured in the presence of the CDC25 inhibitor IRC-083864 (200 nM). Cells were harvested each day and counted after trypan blue coloration. The graph represents three independent experiments.
Cell lines and reagents. Human acute myeloid leukemia cell lines MOLM-14 (Matsuo Y et al, Leukemia 1997) (kindly provided by Martin Carroll, University of Pennsylvania, Philadelphia, Pa., USA) MV4-11, K562 (ACC-102 and ACC-10, DSMZ, Braunschweig, Germany) and FLT3-ITD-expressing murine BaF3 cells were cultured in RPMI 1640 medium (Gibco, Life Technologies, Carlsbad, Calif., USA) supplemented with 10% fetal bovine serum (Sigma, Saint Louis, Calif., USA). TF-1 (ATCC-CRL2003) cells were cultured in RPMI 1640 medium with 10% fetal bovine serum and GM-CSF 2 ng/ml. Concerning MOLM-14 cell line, the presence of a monoallelic 21 bp FLT3-ITD mutation and of an MLL-containing ins(11; 9)(q23;p22p23) were verified (Hematology laboratory of Toulouse University Hospital, Prof E. Delabesse and Dr I. Luquet). KG1 and HL-60 (ACC-14 and ACC-3, DSMZ) cell lines were grown in Iscove's Modified Dulbecco's Medium (IMDM, Gibco) plus 20% FBS. All cells were grown in the presence of 100 units/ml of penicillin and streptomycin (Invitrogen) at 37° C. and 5% CO2.

[3] = molecular target: Cdc25A (Homo sapiens, UniProt P30304); conditions: cited from earlier work
Sequence of Cdc25A (P30304 whole entry): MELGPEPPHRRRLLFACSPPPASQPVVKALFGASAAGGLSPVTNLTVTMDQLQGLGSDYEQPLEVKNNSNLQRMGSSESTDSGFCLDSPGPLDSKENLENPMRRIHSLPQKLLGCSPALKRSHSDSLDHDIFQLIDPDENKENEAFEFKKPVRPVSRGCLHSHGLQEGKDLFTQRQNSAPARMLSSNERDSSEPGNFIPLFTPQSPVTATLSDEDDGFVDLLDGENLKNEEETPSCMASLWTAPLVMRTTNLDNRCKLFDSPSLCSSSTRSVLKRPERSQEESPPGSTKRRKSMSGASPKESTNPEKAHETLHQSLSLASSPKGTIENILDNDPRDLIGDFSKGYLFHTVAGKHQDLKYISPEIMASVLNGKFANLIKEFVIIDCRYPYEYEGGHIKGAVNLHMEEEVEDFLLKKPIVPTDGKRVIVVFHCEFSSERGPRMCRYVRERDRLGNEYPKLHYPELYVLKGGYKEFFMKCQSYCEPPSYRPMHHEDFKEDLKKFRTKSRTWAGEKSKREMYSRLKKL

[4] = system: FLT3-wild type primary AML samples; assay: Differentiation of FLT3 wild-type primary AML samples; type: cell-based, human; conditions: same conditions
From the text: as §1
Co-cultures. […]
(§2) Flow cytometry. Apoptotic cells were detected with Annexin V-FITC detection kit from BD Pharmingen (San Diego, Calif., USA) according to the manufacturer instructions. […] Data were collected on a LSRII or a LSRFortessa cytometer (BD Biosciences), and analyzed with FlowJo software. […]

[5] = system: FLT3-ITD primary AML cells from patients; assay: Differentiation of FLT3-ITD primary AML samples; type: cell-based, human
Procedure: (a) 4 primary samples from patients carrying the FLT3-ITD mutation (ITD #1-4) were treated for 6 days with IRC-083864 (100 nM), and the expression of CD14 (upper panel) and CD15 (lower panel) was followed by flow cytometry analysis. (b) Quantification (mean±SEM, n=4) of CD14 and CD15 expression in response to IRC-083864. (c) The morphology of primary cells from patients used in (a) was analyzed by microscopy after 6 days and 9 days of treatment with IRC-083864. Original magnification ×100.
Patient samples. Patient AML samples were obtained after informed consent in accordance with the Declaration of Helsinki and stored at the HIMIP collection. According to the French law, HIMIP collection has been declared to the Ministry of Higher Education and Research (DC 2008-307 collection 1) and obtained a transfer agreement (AC 2008-129) after approbation by ethical committees (Comité de Protection des Personnes Sud-Ouest et Outremer II and APHP ethical committee). […]
as §2

SMILES: Cc1nc2c(s1)C(=O)C=C(NCCCN(C)CCCNC1=CC(=O)c3nc(-c4cc(F)ccc4F)oc3C1=O)C2=O [IRC-083864]
- clonogenic potential of primary cells expressing wild-type FLT3 [1]: not sensitive
- proliferation of K562 [2]: did not decrease
- IC50 Cdc25 enzyme type A [3]: nanomolar range
- differentiation of FLT3-wild type samples [4]: no evidence of differentiation
- expression of CD14 ([5]; 100 nM, 6 days): increased
- morphology of primary cells ([5]; days 6 and 9): monocytic-like morphological nuclear changes
